The target of the assay is Coagulation factor XI (Homo sapiens, UniProt P03951). The assay can be described thus: FXIa inhibitor IC50 values, dose response, biochemical, hits from 1536-well screen (AID 846). The note with it: pH 7.4; 23 °C.
Sequence of Coagulation factor XI (P03951 19-387 limits assumed): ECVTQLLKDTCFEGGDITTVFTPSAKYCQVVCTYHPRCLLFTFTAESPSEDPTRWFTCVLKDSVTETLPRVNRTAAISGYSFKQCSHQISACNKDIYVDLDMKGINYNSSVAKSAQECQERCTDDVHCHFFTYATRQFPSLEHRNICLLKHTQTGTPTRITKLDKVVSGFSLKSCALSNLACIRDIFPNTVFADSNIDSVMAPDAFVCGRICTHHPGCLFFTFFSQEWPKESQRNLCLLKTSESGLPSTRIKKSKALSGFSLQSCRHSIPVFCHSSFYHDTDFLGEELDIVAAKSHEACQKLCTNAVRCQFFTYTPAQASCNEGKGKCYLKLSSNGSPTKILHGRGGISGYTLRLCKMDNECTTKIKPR
Sequence of Coagulation factor XI (P03951 388-625 limits assumed): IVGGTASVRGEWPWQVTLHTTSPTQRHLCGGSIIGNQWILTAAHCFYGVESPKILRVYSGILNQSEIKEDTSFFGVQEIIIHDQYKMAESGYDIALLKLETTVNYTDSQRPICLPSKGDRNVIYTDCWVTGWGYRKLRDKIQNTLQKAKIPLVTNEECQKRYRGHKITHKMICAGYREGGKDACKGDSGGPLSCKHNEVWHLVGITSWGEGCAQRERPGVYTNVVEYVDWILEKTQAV

What is called IC50 is the midpoint of a concentration-inhibition curve. Turning to `COc1cc(C=NNC(=O)c2ccc(CN3C(=O)c4cccc5cccc3c45)cc2)cc(OC)c1O` [MLS001033788], the IC50 was > 50 µM. For `C=C(C)CNC(=S)Nc1cccc(N)n1`, the IC50 was > 50 µM. The result for `CNC(=S)N1CCC(NC(=O)c2ccco2)CC1` [N-[1-(methylcarbamothioyl)piperidin-4-yl]furan-2-carboxamide] reads > 50 µM; that for `CCN(C(=O)COC(=O)/C=C/c1c(C)nn(-c2ccccc2)c1C)C1CCS(=O)(=O)C1` (configuration not stated) [(E)-3-(3,5-dimethyl-1-phenyl-4-pyrazolyl)-2-propenoic acid [2-[(1,1-dioxo-3-thiolanyl)-ethylamino]-2-oxoethyl] ester], > 50 µM; that for `CC1=C(C(=O)OCCOc2ccccc2)C(c2ccsc2)NC(=O)N1C` (configuration not stated) [2-phenoxyethyl 3,4-dimethyl-2-oxo-6-thiophen-3-yl-1,6-dihydropyrimidine-5-carboxylate], > 50 µM. The figure for `CCOC(=O)c1c(C)n(C)c2ccc(OC)c(NC(=O)CCN3CCC(Cc4ccccc4)CC3)c12` [ethyl 5-methoxy-1,2-dimethyl-4-[3-[4-(phenylmethyl)piperidin-1-yl]propanoylamino]indole-3-carboxylate] is > 50 µM; for `O=C(Nc1cc([N+](=O)[O-])ccc1N1CCOCC1)c1ccco1` [N-(2-morpholin-4-yl-5-nitro-phenyl)furan-2-carboxamide] it is > 50 µM; for `Cc1cc(/C=C2\SC(=S)N(C)C2=O)c(C)n1-c1cccc(O)c1` [SMR000415846] it is > 50 µM. The result for `O=C1SCCC1NC(=O)C(c1ccccc1)c1ccccc1` (configuration not stated) [SMR000425361] reads > 50 µM; that for `C/C=C(\C)C(=O)OC1c2c(ccc3ccc(=O)oc23)OC(C)(C)C1OC(C)=O` (configuration not stated) [MLS000121833], > 50 µM. For the molecule `Cc1ccc(NC2=NC3(CCCCC3)N=C(N)N2)c(C)c1` [N4-(2,4-dimethylphenyl)-1,3,5-triazaspiro[5.5]undeca-1,4-diene-2,4-diamine], the IC50 was > 50 µM. On to `COc1ccc([N+](=O)[O-])cc1NC(=O)CC1S/C(=N\c2cccc(C)c2C)N(N=Cc2cccc(OC)c2OC)C1=O` (configuration not stated), for which the IC50 was > 50 µM. The figure for `Cc1nc2ccccc2c(=O)n1NC(=O)c1cc(Br)ccc1Cl` is > 50 µM. The figure for `Clc1ccccc1Cn1nnc2c(NCCN3CCOCC3)ncnc21` [3-[(2-chlorophenyl)methyl]-N-(2-morpholin-4-ylethyl)triazolo[4,5-d]pyrimidin-7-amine] is > 50 µM; for `CCc1cc(-c2n[nH]cc2-c2nc3ccccc3n2C)c(O)cc1O` [4-Ethyl-6-[4-(1-methyl-1H-benzoimidazol-2-yl)-1H-pyrazol-3-yl]-benzene-1,3-diol] it is > 50 µM. The result for `COc1cc(C(=O)NCC(=O)OCn2nnc3ccccc3c2=O)cc(OC)c1OC` [MLS001007360] reads > 50 µM. The molecule `CCCCCC(=O)Nc1cccc([C+]2CC3(CC(C(N)=O)N(C(=O)c4cc([N+](=O)[O-])cc([N+](=O)[O-])c4C)C3)O[N-]2)c1` (configuration not stated) [MLS000561980] displayed an IC50 of 34.4 µM. The result for `COc1ccc(CSc2nc(C)cc(C)c2S(C)(=O)=O)cc1` [2-[(4-methoxybenzyl)sulfanyl]-4,6-dimethyl-3-pyridinyl methyl sulfone] reads > 50 µM; that for `O=C(Nc1ccc(Cl)cc1)Nc1nc(-c2ccccc2O)cs1` [1-(4-chlorophenyl)-3-[4-(2-hydroxyphenyl)-1,3-thiazol-2-yl]urea], > 50 µM. The result for `COc1ccc2c(c1)-c1nc(NC(=O)c3cccs3)sc1CC2` [N-(8-methoxy-4,5-dihydrobenzo[e][1,3]benzothiazol-2-yl)-2-thiophenecarboxamide] reads 41.3 µM; that for `Fc1ccc(Nc2ccc3ccccc3n2)c(F)c1` [MLS001004714], > 50 µM.

In turn, `O=C(Nc1nc(-c2cccs2)cs1)c1ccc(Cl)cc1` [4-chloro-N-(4-thiophen-2-yl-2-thiazolyl)benzamide] registered a 50% inhibitory concentration (IC50) of 17.3 µM.

`O=C1c2ccccc2C(=O)N1OS(=O)(=O)c1ccccc1` [Benzenesulfonic acid 1,3-dioxo-1,3-dihydro-isoindol-2-yl ester] gave an IC50 of 1.4 µM. The figure for `Cc1cc(C)cc(NC(=O)c2ccc([N+](=O)[O-])o2)c1` [MLS000710428] is > 50 µM.

Regarding `Cn1cccc1C(=O)Nc1nc(-c2ccccn2)cs1` [SMR000064459], the IC50 was found to be 21.6 µM. The result for `O=C(NN=Cc1ccccc1C(=O)O)c1ccccc1Br` [MLS000774668] reads > 50 µM; that for `CCOC(=O)c1sc2ncn(N=Cc3ccc(O)cc3)c(=O)c2c1C` [SMR000371630], > 50 µM.

The molecule `Cc1cc(C)c(C)c(S(=O)(=O)ON2C(=O)c3ccccc3C2=O)c1C` [2-{[(2,3,5,6-tetramethylphenyl)sulfonyl]oxy}-1H-isoindole-1,3(2H)-dione] came in with a half-maximal inhibitory concentration (IC50) of 3.2 µM. The figure for `[O-][S+](NC1CCCCC1)C12CC3CC(CC(C3)C1)C2` (configuration not stated) is > 50 µM; for `Cc1ccc(C(=O)C(=O)c2ccc(C)c(N)c2)cc1N` it is > 50 µM; for `Cc1ccc(C)c(S(=O)(=O)ON2C(=O)c3ccccc3C2=O)c1` [2,5-dimethylbenzenesulfonic acid (1,3-dioxo-2-isoindolyl) ester] it is 0.762 µM. The figure for `Oc1ccc(C=NN2CCN(C3c4ccccc4-c4ccccc43)CC2)c(O)c1` [4-({[4-(9H-fluoren-9-yl)-1-piperazinyl]imino}methyl)-1,3-benzenediol] is > 50 µM. The figure for `Nn1c(C2CCCCC2)nc2ccccc2c1=O` [3-azanyl-2-cyclohexyl-quinazolin-4-one] is > 50 µM; for `Cc1cc(NS(=O)(=O)c2ccc(N3C(=O)C4C5C=CC(C5)C4C3=O)cc2)nc(C)n1` (configuration not stated) [N-(2,6-dimethyl-4-pyrimidinyl)-4-(3,5-dioxo-4-azatricyclo[5.2.1.0~2,6~]dec-8-en-4-yl)benzenesulfonamide] it is > 50 µM; for `CCOC(=O)c1sc(NC(=O)CSC(=S)N2CCN(C)CC2)nc1C` [MLS000332299] it is > 50 µM.

For the molecule `O=C(Nc1ccc2c(c1)oc1ccccc12)N1CCOCC1` [Morpholine-4-carboxylic acid dibenzofuran-3-ylamide], the IC50 is > 50 µM. The figure for `Cc1nn(CC(=O)c2ccc(Cl)s2)c(C)c1[N+](=O)[O-]` [MLS001006606] is > 50 µM; for `Cc1ccc(C(=O)ON=C2CCS(=O)(=O)c3sccc32)cc1` [[[7,7-bis(oxidanylidene)-5,6-dihydrothieno[2,3-b]thiopyran-4-ylidene]amino] 4-methylbenzoate] it is 3.46 µM. The result for `CCN(CC)CCNC(=O)c1ccc(NC(=O)c2cccc(S(=O)(=O)Nc3ccc(C)cc3)c2)cc1` [potassium;[3-[[4-[2-(diethylamino)ethylcarbamoyl]phenyl]carbamoyl]phenyl]sulfonyl-(4-methylphenyl)azanide] reads > 50 µM; that for `O=C(O)CCCC(=O)N1N=C(c2ccccc2)CC1c1cccs1` (configuration not stated) [SMR000414955], > 50 µM; that for `Cc1cc(C)c(S(=O)(=O)ON2C(=O)c3ccccc3C2=O)cc1C` [MLS000577081], 1.01 µM. Regarding `CCOCCCNS(=O)(=O)c1ccc(NC(=O)c2ccc(OC)c([N+](=O)[O-])c2)cc1` [N-[4-(3-ethoxypropylsulfamoyl)phenyl]-4-methoxy-3-nitrobenzamide], the IC50 was > 50 µM. The result for `CCC1CCC2(CC1)SCC(=O)N2c1ccccc1` (configuration not stated) [SMR000425321] reads > 50 µM. The result for `CC(C=NNC(=O)c1cc(-c2cccn2C)n[nH]1)=Cc1ccccc1` reads > 50 µM; that for `Cc1nn(C)c(C)c1C=C(C(=O)C(C)C)n1cncn1` [SMR000427822], > 50 µM. `O=C(NNC(=O)c1cccs1)c1ccc(Br)o1` [5-bromo-N'-(thiophene-2-carbonyl)furan-2-carbohydrazide] registered an IC50 of 8.51 µM. In other words, the single-digit micromolar range. The result for `CSc1nc2cc3c(cc2n1C(=O)c1ccc(C)cc1)OCCO3` [MLS000544330] reads 2.22 µM; that for `CCN1CCN(CC(=O)Nc2cc(C)on2)CC1` [2-(4-ethylpiperazin-1-yl)-N-(5-methyl-1,2-oxazol-3-yl)acetamide;oxalic acid], > 50 µM. Regarding `CCSc1nnc(NC(=O)[C@H](C)N2C(=O)C3CC=CCC3C2=O)s1` (stereo partly drawn) [(2S)-2-(1,3-dioxo-3a,4,7,7a-tetrahydroisoindol-2-yl)-N-[5-(ethylthio)-1,3,4-thiadiazol-2-yl]propanamide], the half-inhibitory concentration (IC50) is > 50 µM. `CCNc1cc(N2CCNCC2)ccc1[N+](=O)[O-]`: the IC50 is > 50 µM.

Regarding `O=C(Cn1c(-c2ccccn2)nc2ccccc21)NN=Cc1cccnc1` [2-(2-pyridin-2-ylbenzimidazol-1-yl)-N-(pyridin-3-ylmethylideneamino)acetamide], the IC50 was > 50 µM. The figure for `O=C(NCc1ccccc1)c1ccc(Cl)nc1` is > 50 µM; for `O=C(O)c1ccc(/C=C2\SC(=S)N(Nc3ccccc3)C2=O)cc1` [4-[4-Oxo-3-phenylamino-2-thioxo-thiazolidin-(5Z)-ylidenemethyl]-benzoic acid] it is > 50 µM; for `Cn1nnc(CC[N+](C)(C)C)n1` [SMR000427769] it is > 50 µM.

On to `COC(=O)c1[nH]c2cc(OC)ccc2c1NC(=O)CCN1CCCCC1` [MLS000041334], for which the IC50 is > 50 µM.

As for `CCCn1cc(C(=O)OCC)c(=O)c2cc(F)c(F)cc21` [SMR000427606], the concentration for half-maximal inhibition (IC50) was > 50 µM. The result for `O=C1c2ccc(-c3ccc4c(c3)C(=O)N(CCO)C4=O)cc2C(=O)N1CCO` [SMR000282940] reads > 50 µM; that for `COc1ccc([N+](=O)[O-])cc1NCc1ccco1` [N-(2-furanylmethyl)-2-methoxy-5-nitroaniline], > 50 µM. As for `CCOC(=O)Cc1csc(NC(=O)c2sc3nc4ccc(CC)cc4cc3c2N)n1` [MLS000556627], the IC50 is > 50 µM. The figure for `CCc1cccc(NC(=O)Cc2ccc([N+](=O)[O-])cc2)c1` is > 50 µM. The result for `CCc1ccc[n+](-c2[n-]c(=O)sc2C=NNC(N)=O)c1` reads > 50 µM; that for `CCCOC(=O)c1ccc(Oc2c[nH]nc2-c2ccc(OCC(=O)NN)cc2O)cc1` [4-[[(3E)-3-[4-(2-hydrazinyl-2-oxoethoxy)-6-oxo-1-cyclohexa-2,4-dienylidene]-1,2-dihydropyrazol-4-yl]oxy]benzoic acid propyl ester], > 50 µM.

For the origin of these results see BindingDB's records for doi:10.7270/Q2H993J6 (Pcmd, 2008).
